Measured values published in patent US6194173A, “Binding proteins for phosphoinositides, GRP1 or general receptor 1 for phophoinositide” (priority 1999, dated 2001).
Like-named read-outs stand apart in the source and are kept apart here. Each block holds one molecule with its values, some of them ahead of it.

Columns and labels:
[1] = target: T1, GSTPH(GRP) (Mus musculus, UniProt O08967); assay: Competition of [32P]PI(3,4,5)P3 binding to GST-PH by inositol phosphate head groups; design: species or system murine
T1 construct: residues 239 to 399 (PH domain); made in house; host or cells: bacteria
T1 sequence (O08967 239-399): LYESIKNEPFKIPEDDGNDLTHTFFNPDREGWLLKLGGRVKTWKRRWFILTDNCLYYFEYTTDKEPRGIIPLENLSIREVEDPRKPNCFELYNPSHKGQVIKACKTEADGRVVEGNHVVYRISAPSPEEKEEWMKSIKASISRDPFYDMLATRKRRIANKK
Description: To generate the GST fusion proteins, PCR reactions using the primers: […] (SEQ ID NO:9) and […] (SEQ ID NO:10) for the GST-N construct, […] (SEQ ID NO:11) and […] (SEQ ID NO:12) for the GST-Sec7 construct, […] (SEQ ID NO:13) and […] (SEQ ID NO:14) for the GSTPH construct, and […] (SEQ ID NO:15) and […] (SEQ ID NO:16) for the GSTGRP constructs. The sequences of the PCR products were verified, and cloned into pGEX-5X-3 in the EcoRI and Xba 1 sites. The bacteria were lysed and the fusion proteins were bound to gluthathione agarose according to standard procedures. Elution was effected by incubation of the beads with one volume 20 mM Hepes, 100 mM NaCl, 1 mM dithiotreitol (H buffer) supplemented with 10 mM gluthatione and 1% sodium cholate, and the eluate was dialyzed extensively against H buffer. For binding assays, protein was bound to nitrocellulose using a BIO-RAD BIO-DOT™ apparatus, using 150 pmol per well for binding assays and 7.5 pmol for competition assays. The nitrocellulose was washed in assay buffer, and 3 mm circles of the filters containing the protein were cut out and incubated in […] assay buffer with the relevant lipids and competitors for 2 h under constant agitation. The filters were washed four times with 1 mL assay buffer and counted in a scintillation counter.
The specificity of the GRP PH domain for binding [^32 P]PI(3,4,5,)P3 was also examined with respect to competition by the inositol phosphate head groups of the phosphoinositides. […] More specifically, 25,000 cpm of [^32 P]PI(3,4,5)P3 was incubated with varying concentrations of inositol 1 ,3,4,5P4 and bound radioactivity determined. The amount of radioactivity bound was calculated as percent of that bound in the absence of competitor. The values are means of quadruplicate measurements, and the error bars are standard deviations. The lack of inhibition by the latter two phosphoinositides is particularly striking since they carry the same charge as the inhibitor […] The concentration of inositol 1,3,4,5-P4 that inhibited binding of [^32 p]PI(3,4,5,)P3 half maximally was about 3-6 μM (FIG. 5A). Taken together, the data in FIGS. 4 and 5 indicate extraordinary specificity of the GRP PH domain for PI(3,4,5)P3. […] The binding to GST fusion proteins containing amino acids 462-569 of murine Sos or amino acid 13-115 of murine IRS-1 was assayed using 150 pmoles of protein bound to the filters. Competition of binding to 7.5 pmoles of GST-PH was measured in the presence of 100 μM of the competitors. The values were calculated as in (A), and are means of quadruplicate measurements and the error bars represent standard deviations.

[2] = target: T2, GRP (Mus musculus, UniProt O08967); assay: Inhibition by inositol phosphates of PtdIns(3,4,5)P3-stimulated GRP-mediated ARF1 exchange; format: biochemical; conditions: 100 μM inositol phosphate, 0.05% cholate and 0.05% CHAPS
T2 construct: GST (N, cleaved yes); made in house; host or cells: GRP from pGEX-4T; ARF1 from baculovirus-infected Sf-9 cells
T2 sequence (O08967 1-399): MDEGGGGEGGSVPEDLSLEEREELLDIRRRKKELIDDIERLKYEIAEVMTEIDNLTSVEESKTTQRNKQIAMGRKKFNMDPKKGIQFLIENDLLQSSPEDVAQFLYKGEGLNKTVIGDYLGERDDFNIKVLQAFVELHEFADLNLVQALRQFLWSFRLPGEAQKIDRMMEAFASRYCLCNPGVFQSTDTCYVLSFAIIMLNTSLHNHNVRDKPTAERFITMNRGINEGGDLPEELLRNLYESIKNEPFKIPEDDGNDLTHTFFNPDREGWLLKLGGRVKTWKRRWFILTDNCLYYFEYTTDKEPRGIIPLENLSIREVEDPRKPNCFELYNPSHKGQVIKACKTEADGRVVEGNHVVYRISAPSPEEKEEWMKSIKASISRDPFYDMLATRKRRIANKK

[3] = system: PH domain of PLCγ1; conditions: cited from earlier work
[4] = target: T3, PH domain of GRP (Mus musculus, UniProt O08967); assay: Binding of [3H]dioctanoyl PtdIns(3,4,5)P3 to GST-PH of GRP; design: GST fused to the PH region of GRP (amino acids 239-399); made in house; host or cells: bacteria
T3 sequence (O08967 239-399): T1 sequence (O08967 239-399)
Protocol: Binding assays were performed as described in (Rameh, L. E. et al., J. Biol. Chem., In Press). Briefly, GST fused to the PH region of GRP (amino acids 239-399) was bound to glutathione immobilized on agarose beads (Sigma). Synthetic [^3 H]-labeled diotanoyl PtdIns(3,4,5)P3 was added, and after one hour the beads were separated from the supernatant by centrifugation. The amount of [^3 H]-PtdIns(3,4,5)P3 bound to the PH domain was calculated by subtracting the amount of free [^3 H] present in supernatants from GST-GRP from the amount of free [^3 H] in supernatants from control GST. The data was fitted to the equation [bound]=Bmax×[free]/(KD + [free]) by least squares curve fit. For the competition assays the beads containing the GST-fusion proteins were incubated with 2.5 μM[^3 H]-labeled dioctanoyl PtdIns(3,4,5)P3 bound was calculated based on the amount of [^3 H] bound to the beads in the absence of competitor. […]
The data depicted in FIG. 8 indicate that receptor signaling through PI3-kinases, which generates PtdIns(3,4,5)P3, may specifically regulate ARF proteins through GRP. In order to further test this, the relative binding affinities of PtdIns(3,4,5)P3 versus PtdIns (4,5)P2, which is constitutively present in cell membranes, for the PH domain of GRP were determined. […] These experiments show high affinity binding of this polyphosphoinositide,with a calculated Kd=0.5 μM.

[5] = target: T3, PH domain of GRP; assay: Competition for [3H]dioctanoyl PtdIns(3,4,5)P3 binding to the PH domain of GRP; design: GST fused to the PH region of GRP (amino acids 239-399); made in house; host or cells: bacteria; conditions: identical fatty acyl side chains (dioctanoyl)
Protocol: Binding assays were performed as described in (Rameh, L. E. et al., J. Biol. Chem., In Press). Briefly, GST fused to the PH region of GRP (amino acids 239-399) was bound to glutathione immobilized on agarose beads (Sigma). Synthetic [^3 H]-labeled diotanoyl PtdIns(3,4,5)P3 was added, and after one hour the beads were separated from the supernatant by centrifugation. The amount of [^3 H]-PtdIns(3,4,5)P3 bound to the PH domain was calculated by subtracting the amount of free [^3 H] present in supernatants from GST-GRP from the amount of free [^3 H] in supernatants from control GST. The data was fitted to the equation [bound]=Bmax×[free]/(KD + [free]) by least squares curve fit. For the competition assays the beads containing the GST-fusion proteins were incubated with 2.5 μM[^3 H]-labeled dioctanoyl PtdIns(3,4,5)P3 bound was calculated based on the amount of [^3 H] bound to the beads in the absence of competitor. The total [^3 H] bound to the GST control was less then 0.5% of the total [^3 H] bound to GRP PH domain. The data was fitted to the equation % bound=100-n×L/Klapp +L) where n is the % specific binding, L is the concentration of unlabeled lipid added and Klapp is the apparent competitive dissociation constant. The rations of the apparent dissociation constants accurately reflect the ratios of the true dissociation constants under the present experimental conditions (Rameh, L. E. et al., J. Biol. Chem., In Press).
The data depicted in FIG. 8 indicate that receptor signaling through PI3-kinases, which generates PtdIns(3,4,5)P3, may specifically regulate ARF proteins through GRP. In order to further test this, the relative binding affinities of PtdIns(3,4,5)P3 versus PtdIns (4,5)P2, which is constitutively present in cell membranes, for the PH domain of GRP were determined. A GST fusion protein of the PH domain of GRP was incubated with various concentrations of synthetic [^3 H]dioctanoyl PtdIns(3,4,5)P3 and binding was determined (FIG. 9A). These experiments show high affinity binding of this polyphosphoinositide,with a calculated Kd=0.5 μM.

inhibition of [^32 P]PI(3,4,5)P3 binding to GST-PH(GRP) ([1]; 100 μM competitor): little or no effect | binding of inositol phosphate to GRP polypeptides ([1]; statement in the description): not | inhibition of PtdIns(3,4,5)P3-stimulated GRP-mediated ARF1 guanine nucleotide exchange [2]: failed to inhibit
SMILES: O=P(O)(O)O[C@@H]1[C@H](O)[C@H](O)[C@@H](OP(=O)(O)O)[C@H](OP(=O)(O)O)[C@H]1O [Ins(1,4,5)P3, D-myo-inositol 1,4,5 trisphosphate]
interaction with isolated PH domain of PLCγ1 [3]: high affinity

Kd [4]: 510 nM | Kd ([4]; synthetic [^3 H]dioctanoyl PtdIns(3,4,5)P3): 500 nM
SMILES: CCCCCCCC(=O)OCC(COP(=O)(O)O[C@H]1[C@H](O)[C@@H](OP(=O)(O)O)[C@H](OP(=O)(O)O)[C@@H](OP(=O)(O)O)[C@H]1O)OC(=O)CCCCCCC (stereo partly shown) [[^3 H]dioctanoyl PtdIns(3,4,5)P3]

affinity, fold higher compared to PtdIns(4,5)P2 [5]: 50-100 fold
SMILES: CCCCCCCC(=O)OC[C@H](COP(=O)(O)O[C@H]1[C@H](O)[C@@H](OP(=O)(O)O)[C@H](OP(=O)(O)O)[C@@H](OP(=O)(O)O)[C@H]1O)OC(=O)CCCCCCC [dioctanoyl PtdIns(3,4,5)P3]
